Several values for one entry are separate records, joined by “and”; a condition that tells them apart may be missing. Identical values can stand only once.
Assays:
[1] = system: human embryonic stem cells (H9 or H1 lines); assay: Plate reader assay (MTS, OD490): proliferation of human embryonic stem cells; assay type: cell-based
Method: Maintenance of human embryonic stem cells (H9 or H1 lines) was conducted as described in Example 1. Colonies of cells were maintained in an undifferentiated, pluripotent state with passage on average every four days. Passage was performed by exposing cell cultures to a solution of collagenase (1 mg/ml; Sigma-Aldrich) for 10 to 30 minutes at 37° C. followed by gentle scraping with a pipette tip to recover cell clusters. Clusters were allowed to sediment and washed to remove residual collagenase. Cell clusters were split at a ratio of 1:3 monolayer area for routine culture or a 1:1 ratio for immediate assay. The human embryonis stem cell lines used for these examples were maintained at passage numbers less than 50 and routinely evaluated for normal karyotypic phenotype as well as absence of mycoplasm contamination.
Cell clusters used in assay were evenly resuspended in normal culture medium and plated into MATRIGEL-coated 96-well Packard VIEWPLATES (PerkinElmer) in volumes of 100 μl/well. MEF conditioned medium supplemented with 8 ng/ml bFGF) was used for initial plating and recovery. Daily feeding was conducted by aspirating spent culture medium from each well and replacing with an equal volume of fresh medium. Plates were maintained at 37° C. in a humidified box, 5% CO2 throughout the duration of assay.
Primary screening assays were initiated by aspirating culture medium from each well followed by three washes in PBS to remove residual growth factors and serum. Test volumes of 80-100 μl per well were added back containing DMEM:F12 base medium (Invitrogen) supplemented with 0.5% FCS (HyClone) and 100 ng/ml activin A (R&D Biosystems) and 10 μM test compound. […]
On day 4 of assay, […] of MTS (Promega) was added to each well and plates were incubated at 37° C. for 1.5 to 4 hours. Densitometric readings at OD490 were determined using a Molecular Devices spectrophotometer plate reader. Average readings for replicate sets were calculated along with standard deviation and coefficient of variation. […]

[2] = system: Sox17; assay: High content screening assay: Sox17 protein expression (total intensity); assay type: cell-based, human
Method: (§1) Maintenance of human embryonic stem cells (H9 line) was conducted as described in Example 1. Colonies of cells were maintained in an undifferentiated, pluripotent state with passage on average every four days. Passage was performed by exposing cell cultures to a solution of collagenase (1 mg/ml; Sigma-Aldrich) for 10 to 30 minutes at 37° C. followed by gentle scraping with a pipette tip to recover cell clusters. Clusters were allowed to sediment by gravity, followed by washing to remove residual collagenase. Cell clusters were split at a 1:3 ratio for routine maintenance culture or a 1:1 ratio for immediate assay. The human embryonic stem cell lines used were maintained at passage numbers less than passage 50 and routinely evaluated for normal karyotypic phenotype and absence of mycoplasma contamination.
(§2) Cell clusters used in the assay were evenly resuspended in normal culture medium and plated onto MATRIGEL-coated 96-well Packard VIEWPLATES (PerkinElmer) in volumes of 100 μl/well. MEF conditioned medium supplemented with 8 ng/ml bFGF was used for initial plating and recovery. Daily feeding was conducted by aspirating spent culture medium from each well and replacing with an equal volume of fresh medium. Plates were maintained at 37° C., 5% CO2 in a humidified box throughout the duration of assay. […]

[3] = system: human embryonic stem cells (H9 line); assay: High content screening assay: total cell number (proliferative response); assay type: cell-based
Method: as §1
Cell clusters used in the assay were evenly resuspended in normal culture medium and plated onto MATRIGEL-coated 96-well Packard VIEWPLATES (PerkinElmer) in volumes of 100 μl/well. MEF conditioned medium supplemented with 8 ng/ml bFGF was used for initial plating and recovery. Daily feeding was conducted by aspirating spent culture medium from each well and replacing with an equal volume of fresh medium. Plates were maintained at 37° C., 5% CO2 in a humidified box throughout the duration of assay.
Screening was conducted using test compounds from a proprietary library of small molecules selected for their ability to inhibit GSK-3B enzyme activity. Compounds from this library were made available as 1 mM stocks, in a 96-well plate format in 50 mM HEPES, 30% DMSO. Screening compounds were tested in triplicate or duplicate sets. Primary screening assays were initiated by aspirating culture medium from each well followed by three washes in PBS to remove residual growth factors and serum. Test volumes of 80 to 100 μl per well were added back containing DMEM:F12 base medium (Invitrogen) supplemented with 0.5% FCS (HyClone) and 100 ng/ml activin A (R&D Biosystems) plus […] test compound. Positive control wells contained the same base medium, substituting 10-20 ng/ml Wnt3a (R&D Biosystems) for the test compound. Negative control wells contained base medium with 0.5% FCS and activin A alone (AA only) or alternatively, 0.5% FCS without activin A or Wnt3a (no treatment). Wells were aspirated and fed again with identical solutions on day 2 of assay. On days 3 and 4, all assay wells were aspirated and converted to DMEM:F12 supplemented with 2% FCS and 100 ng/ml activin A (without test compound or Wnt3a); parallel negative control wells were maintained in DMEM:F12 base medium with 2% FCS and activin A (AA only) or alternatively, 2% FCS without activin A (no treatment). […]

[4] = system: cells expressing pluripotency markers; assay: Viability (MTS, OD 490 nm) of cells expressing pluripotency markers treated with GSK-3B inhibitors; assay type: cell-based, human; settings: for Raw data (duplicate): optical density at 490 nm (MTS), single wells
Method: Derivation and maintenance of cells expressing pluripotency makers was conducted as has been described in Example 2. Cells were grown in DMEM:F12 supplemented with 2% FCS (Invitrogen), 100 ng/ml Activin A, 20 ng/ml Wnt-3a, and 50 ng/ml IGF (R&D Biosystems). Cells were seeded at a density of 10,000 cells/cm^2 on Falcon polystyrene flasks and grown in monolayer culture at 37° C., 5% CO2, low oxygen. After reaching 60-70% confluence, cells were passed by washing the monolayer with PBS and incubating with TrypLE (Invitrogen) for 3-5 minutes to allow detachment and single cell dispersal.
Screening was conducted using test compounds from a proprietary library of small molecules selected for their ability to inhibit GSK-3B enzyme activity. Compounds from this library were made available as 1 mM stocks, in a 96-well plate format in 50 mM HEPES, 30% DMSO. For assay, cells expressing pluripotency markers were washed, counted, and plated in normal culture medium at a seeding density of 20,000 cells per well in 96-well clear-bottom, dark-well plates (Costar). This seeding density was previously determined to yield optimal monolayer formation in overnight culture. On the following day, culture medium was removed, cell monolayers were rinsed three times with PBS, and test compounds were added to the wells in 80 μl aliquots, each diluted into assay medium at a final assay concentration of 10 μM. On day 2 of the assay, medium was removed from each well and replaced with a fresh aliquot of test compounds diluted into assay medium. Assay medium on days 1 and 2 of culture consisted of DMEM:F12 supplemented with 0.5% FCS and 100 ng/ml Activin A. On days 3 and 4 of culture, medium was removed from each well and replaced with DMEM:F12 supplemented with 2% FCS and 100 ng/ml Activin A (no test compound). On day 4 of assay, 15 μl of MTS (Promega) was added to each well and plates were incubated at 37° C. for 1.5 to 4 hours prior to reading optical density at 490 nm on a SpectraMax (Molecular Devices) instrument. Statistical measures consisting of mean, standard deviation, and coefficient of variation were calculated for each duplicate set. Toxicity was calculated for each test well relative to a positive control (wells treated with Activin A and Wnt3a on days 1 and 2 of culture).
A larger proportion of the compounds have minimal or no measurable toxicity in this cell-based assay.
A small panel of select compounds was repeat tested over a narrow dose titration range, again using cells expressing pluripotency markers in a similar assay as described above.

[5] = system: HNF-3beta; assay: High content screening assay: HNF-3beta protein expression (total intensity); assay type: cell-based, human
Method: as §1, §2

[6] = total intensity normalized to Wnt3a/Activin A positive control

Molecule: OCCC#Cc1nc(-c2ccc(F)cc2)c(-c2ccncc2)n1CCCc1ccccc1 [RWJ67657]
- % Control Value ([1]; 10 μM test compound, MTS OD490 on day 4, relative to Activin A/Wnt3a positive control): 84.7%
- Average (of Raw Data) ([1]; mean of replicate raw plate-reader readings (MTS, OD490), proliferation of human embryonic stem cells): 1.2242
- % Control ([1]; relative to the AA/Wnt3a/DMSO positive control of the same plate (= 100.0)): 84.7%
- SOX-17 Expression Total Intensity ([2]; total intensity): 324450000
- SOX-17 Expression Fold over Wnt 3a/AA control [2, 6]: 0.3336 Fold over Wnt 3a/AA control
- Proliferative Response Total cells (HNF-3b Expression set) ([3]; total cell number in wells stained for HNF-3b): 6058
- Proliferative Response Total cells (SOX-17 Expression set) ([3]; total cell number in wells stained for SOX-17): 6376
- Proliferative Response Fold over Wnt 3a/AA control (HNF-3b Expression set) ([3]; total cells normalized to Wnt3a/Activin A positive control, wells stained for HNF-3b): 0.3852 Fold over Wnt 3a/AA control
- Proliferative Response Fold over Wnt 3a/AA control (SOX-17 Expression set) ([3]; total cells normalized to Wnt3a/Activin A positive control, wells stained for SOX-17): 0.4162 Fold over Wnt 3a/AA control
- Average ([4]; MTS viability readout, average of duplicate raw data): 0.644
- Raw data (duplicate), first value ([4]; MTS viability readout, first of duplicate wells): 0.629
- Raw data (duplicate), second value ([4]; MTS viability readout, second of duplicate wells): 0.659
- Average ([4]; cmpd conc 2.5 uM, mean optical density at 490 nm (MTS) of duplicate): 0.7971
- Raw data (duplicate) ([4]; cmpd conc 2.5 uM): 0.8041 and 0.7900
- % Control ([4]; cmpd conc 2.5 uM, viability relative to AA + Wnt3a positive control, MTS day 4): 93.2%
- Average ([4]; cmpd conc 5 uM, mean optical density at 490 nm (MTS) of duplicate): 0.8183
- Raw data (duplicate) ([4]; cmpd conc 5 uM): 0.8047 and 0.8319
- % Control ([4]; cmpd conc 5 uM, viability relative to AA + Wnt3a positive control, MTS day 4): 96.2%
- Average ([4]; cmpd conc 10 uM, mean optical density at 490 nm (MTS) of duplicate): 0.6052
- Raw data (duplicate) ([4]; cmpd conc 10 uM): 0.6195 and 0.5908
- % Control ([4]; cmpd conc 10 uM, viability relative to AA + Wnt3a positive control, MTS day 4): 66.5%
- % Control ([4]; viability as % of control): 77.7%
- HNF-3b Expression Total Intensity ([5]; total intensity): 269025000
- HNF-3b Expression Fold over Wnt 3a/AA control [5, 6]: 0.2428 Fold over Wnt 3a/AA control

B1: AA only: control wells with base medium, FCS and activin A alone (protein, UniProt P08476 311-426, looked up)
Inhibin beta A chain: GLECDGKVNICCKKQFFVSFKDIGWNDWIIAPSGYHANYCEGECPSHIAGTSGSSLSFHSTVINHYRMRGHSPFANLKSCCVPTKLRPMSMLYYDDGQNIIKKDIQNMIVEECGCS
- Average ([4]; control wells without test compound, mean optical density at 490 nm (MTS)): 0.8889 and 0.7861
- Raw data (duplicate) ([4]; control wells without test compound): 0.8732 and 0.9046 and 0.7674 and 0.8047
- % Control ([4]; control wells without test compound, relative to AA + Wnt3a): 106.0% and 98.3%
